Assay results reported in article PMC5460925, “Degradation Paradigm of the Gut Hormone, Pancreatic Polypeptide, by Hepatic and Renal Peptidases” (Endocrinology, 2017).

Experiments:
[1] = molecular target: T1, mouse Y4 receptor (Mus musculus, UniProt Q61041); experiment: Y4 receptor binding assay (125I-PP competition); details: membranes of HEK293 cells overexpressing mouse Y4 receptor; competition with 125I-PP (100 pM); 90 min, 4°C; mean ± SEM of three to five separate experiments; read-out: IC50 (half maximal inhibitory concentration), Y4 receptor binding affinity
T1 construct: expressed in transfected cells; host or cells: HEK293
Experimental: Transfected HEK293 cells overexpressing the mouse Y4 receptor were prepared and binding assays performed as previously described ([29]). Isolated cell membranes (protein concentration, 1 to 2 µg/mL) were incubated for 90 minutes in siliconized polypropylene tubes together with ^125I-PP [1 kBq (100 pM)] and a dose response of unlabeled competing peptides at 4°C in binding buffer [20 mM HEPES (pH 7.4), 1 mM MgCl2, 5 mM CaCl2, 0.1% bovine serum albumin, and protease inhibitors (0.2 mM phenylmethylsulfonyl fluoride, 0.1 mM Diprotin A, and 10 µM phosphoramidon ( all from Sigma-Aldrich)] in a final assay volume of 0.5 mL. PP was iodinated as previously described ([8]) using ^125I from GE Healthcare Life Sciences (Amersham, UK). Pelleted membranes were washed with 5 mL ice-cold assay buffer, and the membranes were centrifuged at 15,874g for 3 minutes at 4°C, as described, to separate bound and free label. Bound radioactivity was measured using a γ-counter (NE 1600; NE Technology Ltd, Reading, UK). Specific binding was calculated as the difference between the amount of ^125I-PP bound in the absence (total binding) and presence of 5 μM unlabeled competing peptide (nonsaturable binding). All curves were performed with points in triplicate. Half maximal inhibitory concentration values were calculated using Prism, version 5.01 (GraphPad Software Inc., San Diego, CA) using a three-parameter logistic equation for the nonlinear regression fit: Y = bottom + (top − bottom)/1 + 10^(LogEC50 − X), where EC50 is the half maximal effective concentration.

[2] = tested on: food intake in C57/BL6 mice; experiment: Acute feeding studies (food intake) in overnight-fasted mice; assay type: in vivo, mouse
Experimental: All animal procedures were approved by the British Home Office, under the United Kingdom Animal (Scientific Procedures) Act 1986 (project license, 70/6402). Adult male C57/BL6 mice (Harlan, Wyton, UK) weighing 20 to 25 g were maintained in individual cages under controlled temperature (21°C to 23°C) and light (12-hour light/dark cycle, with lights on at 7:00 AM). The mice had ad libitum access to water and normal chow RM1 (Special Diet Services, Devon, UK), unless stated otherwise. For acclimatization, the mice were regularly handled and given 2 sham subcutaneous (SC) and/or intraperitoneal (IP) injections of saline. Before each feeding study, the mice were fasted overnight, and the injections were performed during the early light phase (8:00 to 10:00 AM). The mice were stratified by body weight. To investigate the anorectic effects of DPPIV-resistant analogs, the mice were stratified into treatment groups and administered a SC injection (maximum volume, 100 µL) of vehicle, PP, PP3-36, PP2-36, or PP-Ala0 (n = […]). Food intake was measured at 1, 2, 4, and 8 hours after injection to compare the peptides with short half-lives (PP and its endogenous degradation product, PP3-36) and, in a separate experiment, at 24 hours after injection for peptides with modifications (PP-Ala0 and PP2-36, using PP as the comparator). A PP analog with global modifications for enzyme resistance (PP-x) was also investigated and administered as a SC injection (maximum volume, 100 µL) at a high and low dose (n = 9). Food intake was measured at 1, 2, 4, and 8 hours after injection. […] This dose of phosphoramidon was sufficient to inhibit NEP activity ([30]). Food intake was measured at 1, 2, 4, 8, 24, and 48 hours after injection.

[3] = in vivo; design: species or system mouse; details: for level at time molar at 1.5 h: male, C57BL/6, mouse, plasma level of PP at 90 minutes
Experimental: The mice were divided into four treatment groups according to body weight. A protocol similar to that used for the phosphoramidon feeding study was used, with an IP injection, followed by a SC injection 15 minutes later (maximum volume, 50 µL for each injection) of phosphoramidon (0, 7, 20, and 60 mg/kg IP), followed by PP (150 nmol/kg SC in saline; n = 4 to 6; […]). […] Additional mice (n = 2) underwent overnight fasting and were culled at 0 minutes after injection of the control substances (saline SC and vehicle IP) for measurement of the baseline levels of circulating PP. The blood was immediately removed via cardiac puncture and centrifuged at 6000 rpm (Sigma 3K18; 12348 rotor; Sigma-Aldrich) for 10 minutes. The plasma was stored at −20°C until analysis. The plasma samples were assayed using an established in-house PP RIA ([8]). The anti-PP antibody was elevated in rabbit against human PP and recognized PP (and other truncated forms) but not in other PP-fold peptides or gastrointestinal peptides. ^125I-PP was prepared using the iodogen method and purified using HPLC. The assay was performed in duplicate in a total volume of 700 µL of 0.06 M phosphate buffer (pH 7.35) containing 0.3% bovine serum albumin. The samples were incubated for 3 days at 4°C before separation of free and antibody-bound ^125I-PP using dextran-coated charcoal. The sensitivity was ≤5 fmol/tube. The intra-assay coefficient of variation was 6%.

[4] = human, in vivo; cited from earlier work
Experimental: Administration of PP to humans is not associated with adverse side effects such as nausea, unlike GLP-1 analogs and, as such, is potentially a useful agent for the regulation of food intake and the treatment of obesity. PP is a relatively small peptide (4.2 kDa) and is therefore susceptible to a number of degradative enzymes and other eliminating mechanisms. PP consequently has a short circulating half-life of approximately 7 minutes in humans ([6]). This short half-life limits the use of native PP as a practical obesity treatment. To the best of our knowledge, the mechanisms for the degradati ...

T1 sequence (Q61041 whole entry): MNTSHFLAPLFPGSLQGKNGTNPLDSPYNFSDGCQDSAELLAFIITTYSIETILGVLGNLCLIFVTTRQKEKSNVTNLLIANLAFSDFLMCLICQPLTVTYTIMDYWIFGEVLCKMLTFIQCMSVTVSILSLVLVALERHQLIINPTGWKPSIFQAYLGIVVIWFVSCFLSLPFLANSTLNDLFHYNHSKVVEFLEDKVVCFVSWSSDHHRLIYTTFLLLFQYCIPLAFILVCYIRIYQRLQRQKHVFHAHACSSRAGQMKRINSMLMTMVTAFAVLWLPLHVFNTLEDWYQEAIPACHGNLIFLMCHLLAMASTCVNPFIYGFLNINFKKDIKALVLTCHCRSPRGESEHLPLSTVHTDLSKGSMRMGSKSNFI

IC50 [1]: 0.26 ± 0.04 nM | level at time molar at 1.5 h ([3]; sc, 150 nmol/kg, PP alone): 1.92 ± 0.134 nM | level at time molar at 1.5 h ([3]; sc, with phosphoramidon 7 mg/kg): 5.46 ± 0.807 nM | level at time molar at 1.5 h ([3]; sc, with phosphoramidon 20 mg/kg): 5.3 ± 0.461 nM | level at time molar at 1.5 h ([3]; sc, with phosphoramidon 60 mg/kg): 5.53 ± 0.348 nM | plasma levels of PP at 45 minutes, alone vs combined with any dose of phosphoramidon ([3]; mouse): did not differ significantly | decrease of plasma level (peptide cleared) between 45 and 90 minutes after injection ([3]; mouse, sc): ~80% | level at time molar at 0.5 h ([3]; mouse, sc, 100 nmol/kg, plasma peptide level at 30 minutes after injection): 8.74 ± 0.744 nM | level at time molar at 2 h ([3]; mouse, sc, 100 nmol/kg, plasma peptide level at 120 minutes after injection): 2.11 ± 0.224 nM
Compound: CC[C@H](C)[C@H](NC(=O)[C@H](Cc1ccc(O)cc1)NC(=O)[C@H](CCCNC(=N)N)NC(=O)[C@H](CCCNC(=N)N)NC(=O)[C@H](CC(C)C)NC(=O)[C@H](CC(=O)O)NC(=O)[C@H](C)NC(=O)[C@H](C)NC(=O)[C@H](Cc1ccc(O)cc1)NC(=O)[C@H](CCC(N)=O)NC(=O)[C@H](C)NC(=O)[C@H](CCSC)NC(=O)[C@H](CCC(N)=O)NC(=O)[C@H](CCC(=O)O)NC(=O)[C@@H]1CCCN1C(=O)[C@@H](NC(=O)[C@H](C)NC(=O)[C@H](CC(N)=O)NC(=O)[C@H](CC(=O)O)NC(=O)CNC(=O)[C@@H]1CCCN1C(=O)[C@H](Cc1ccc(O)cc1)NC(=O)[C@@H](NC(=O)[C@@H]1CCCN1C(=O)[C@H](CCC(=O)O)NC(=O)[C@H](CC(C)C)NC(=O)[C@@H]1CCCN1C(=O)[C@H](C)N)C(C)C)[C@@H](C)O)C(=O)N[C@@H](CC(N)=O)C(=O)N[C@@H](CCSC)C(=O)N[C@@H](CC(C)C)C(=O)N[C@H](C(=O)N[C@@H](CCCNC(=N)N)C(=O)N1CCC[C@H]1C(=O)N[C@@H](CCCNC(=N)N)C(=O)N[C@@H](Cc1ccc(O)cc1)C(N)=O)[C@@H](C)O [PP, Pancreatic polypeptide]
cumulative food intake at 8 hours (0- to 8-hour interval), low dose ([2]; 25 nmol/kg SC, overnight-fasted C57BL/6 mice, n = 9, mean ± SEM): 2.36 ± 0.18 g | inhibition of food intake over 24 hours vs saline ([2]; 150 nmol/kg SC, overnight-fasted C57/BL6 mice, 0 to 24 hours, n = 7): did not | cumulative food intake 0 to 8 hours ([2]; 150 nmol/kg SC, overnight-fasted C57/BL6 mice, n = 7, mean ± SEM): 0.93 ± 0.10 g | cumulative food intake at 48 hours, PP alone ([2]; PP 150 nmol/kg SC after vehicle IP, phosphoramidon study, fasted mice, mean ± SEM): 6.52 ± 0.14 g | food intake at 4 hours, PP alone ([2]; PP 150 nmol/kg SC, sitagliptin study, fasted mice, mean ± SEM): 0.91 ± 0.04 g | circulating half-life [4]: approximately 7 minutes
